Structures are written as SMILES.

Drawing on ChEMBL document CHEMBL1149416, “Design, synthesis, and biological evaluation of BODIPY-erythromycin probes for bacterial ribosomes” (Bioorg Med Chem Lett, 2006), this text covers Kd and IC50 for four molecules.

Experiment [1] has as its system Escherichia coli. The experiment can be described thus: Binding affinity to 70S bacterial ribosome isolated from Escherichia coli. The format is functional.
Experiment [2] deals with Escherichia coli. Kind of experiment: Inhibition of ribosome function in a coupled transcription and translational assay using Escherichia coli S30 extracts. The format is functional, organism-based.

In the experiment on Escherichia coli [1], `CC[C@H]1OC(=O)[C@H](C)[C@@H](O[C@H]2C[C@@](C)(OC)[C@@H](OC(=O)NCCNC(=O)CCC3=CC4=Cc5c(C)cc(C)n5[B-](F)(F)[N+]4=C3)[C@H](C)O2)[C@H](C)[C@@H](O[C@@H]2O[C@H](C)C[C@H](N(C)C)[C@H]2O)[C@](C)(O)C[C@@H](C)[C@H](NC(=O)OCc2ccccc2)[C@H](C)[C@@H](O)[C@]1(C)O` showed a Kd of 1.5 nM. In addition, the IC50 with Escherichia coli [2] is 550 nM.

Take `CC[C@H]1OC(=O)[C@H](C)[C@@H](O[C@H]2C[C@@](C)(OC)[C@@H](O)[C@H](C)O2)[C@H](C)[C@@H](O[C@@H]2O[C@H](C)C[C@H](N(C)C)[C@H]2O)[C@](C)(O)C[C@@H](C)[C@H](NC(=O)CCC2=CC3=Cc4c(C)cc(C)n4[B-](F)(F)[N+]3=C2)[C@H](C)[C@@H](O)[C@]1(C)O`: the Kd in the experiment on Escherichia coli [1] amounted to 30 nM. In the experiment on Escherichia coli [2], the half-maximal inhibitory concentration (IC50) worked out at 1500 nM.

Turning to `CC[C@H]1OC(=O)[C@H](C)[C@@H](O[C@H]2C[C@@](C)(OC)[C@@H](O)[C@H](C)O2)[C@H](C)[C@@H](O[C@@H]2O[C@H](C)C[C@H](N(C)C)[C@H]2O)[C@](C)(O)C[C@@H](C)C(=O)[C@H](C)[C@@H](O)[C@]1(C)O` [ERYTHROMYCIN], the IC50 in the experiment with Escherichia coli [2] was determined as 80 nM. As for `CC[C@H]1OC(=O)[C@H](C)[C@@H](O[C@H]2C[C@@](C)(OC)[C@@H](OC(=O)NCCNC(=O)CCC3=CC4=Cc5c(C)cc(C)n5[B-](F)(F)[N+]4=C3)[C@H](C)O2)[C@H](C)[C@@H](O[C@@H]2O[C@H](C)C[C@H](N(C)C)[C@H]2O)[C@](C)(OC)C[C@@H](C)C(=O)[C@H](C)[C@@H](O)[C@]1(C)O`, the Kd with Escherichia coli [1] was below 0.5 nM. Besides, in the experiment with Escherichia coli [2], inhibition was half-maximal at 160 nM (IC50).

What is called Kd is the constant that tells how readily two partners part at equilibrium. High values mean weaker binding, low ones tighter binding. By IC50 is commonly meant the concentration that gives 50% inhibition.
